Assay results: PubChem BioAssay AID256 (DTP/NCI, 2004)
Several values for one entry are separate records, joined by “and”; a condition that tells them apart may be missing. Equal values may be shown once. Inconclusive results and toxic doses are left out.

Tested on: CD2F1 mice, L1210 leukemia ip, survival T/C
Test: NCI In Vivo Anticancer Drug Screen. Data for tumor model L1210 Leukemia (intraperitoneal) in CD2F1 (CDF1) mice
Conditions: higher = longer survival
Outline: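 Transplantable tumor in mice; compound-treated vs vehicle-treated groups. Read-out = treated/control ratio of the measured endpoint.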

[1] = endpoint: mean survival time, dose: 12.5 mg/kg/injection, schedule: Q04DX003 (ip), vehicle: saline with Tween-80
[2] = endpoint: mean survival time, dose: 100.0 mg/kg/injection, schedule: Q01DX001 (ip), vehicle: saline
[3] = endpoint: mean survival time, dose: 100.0 mg/kg/injection, schedule: Q04DX003 (ip), vehicle: saline
[4] = endpoint: mean survival time, dose: 200.0 mg/kg/injection, schedule: Q01DX001 (ip), vehicle: saline
[5] = endpoint: mean survival time, dose: 200.0 mg/kg/injection, schedule: Q04DX003 (ip), vehicle: saline
[6] = endpoint: mean survival time, dose: 100.0 mg/kg/injection, schedule: Q01DX009 (ip), vehicle: saline with Tween-80
[7] = endpoint: mean survival time, dose: 200.0 mg/kg/injection, schedule: Q01DX009 (ip), vehicle: saline with Tween-80
[8] = endpoint: mean survival time, dose: 400.0 mg/kg/injection, schedule: Q01DX009 (ip), vehicle: saline with Tween-80
[9] = endpoint: mean survival time, dose: 50.0 mg/kg/injection, schedule: Q01DX009 (ip), vehicle: saline with Tween-80
[10] = endpoint: mean survival time, dose: 100.0 mg/kg/injection, schedule: Q04DX003 (ip), vehicle: saline with Tween-80
[11] = endpoint: mean survival time, dose: 200.0 mg/kg/injection, schedule: Q04DX003 (ip), vehicle: saline with Tween-80
[12] = endpoint: mean survival time, dose: 400.0 mg/kg/injection, schedule: Q04DX003 (ip), vehicle: saline with Tween-80
[13] = endpoint: mean survival time, dose: 25.0 mg/kg/injection, schedule: Q01DX009 (ip), vehicle: saline
[14] = endpoint: mean survival time, dose: 50.0 mg/kg/injection, schedule: Q01DX009 (ip), vehicle: saline
[15] = endpoint: mean survival time, dose: 100.0 mg/kg/injection, schedule: Q01DX009 (ip), vehicle: saline
[16] = endpoint: mean survival time, dose: 200.0 mg/kg/injection, schedule: Q01DX009 (ip), vehicle: saline

With COC(=O)[C@H]1[C@H]2C[C@@H]3c4[nH]c5cc(OC)ccc5c4CCN3C[C@H]2C[C@@H](OC(=O)c2cc(OC)c(OC)c(OC)c2)[C@@H]1OC the T/C (endpoint: mean survival time, dose: 3.0 mg/kg/injection, schedule: Q01DX009 (ip), vehicle: saline with Tween-80) was 95 % of control, the T/C (endpoint: mean survival time, dose: 6.0 mg/kg/injection, schedule: Q01DX009 (ip), vehicle: saline with Tween-80) was 94 % of control and the T/C [1] was 90 % of control. For the same molecule, the T/C (endpoint: mean survival time, dose: 50.0 mg/kg/injection, schedule: Q04DX003 (ip), vehicle: saline with Tween-80) was 89 % of control.
In the case of O=S(=O)(Cl)c1ccc2cc3ccccc3cc2c1, the T/C (endpoint: mean survival time, dose: 50.0 mg/kg/injection, schedule: Q04DX003 (ip), vehicle: saline) is reported as 96 % of control, the T/C [2] is reported as 94 % of control and the T/C [3] is reported as 96 % of control. For the same molecule, the T/C [4] was 101 % of control and the T/C [5] was 102 % of control.
For COC(=O)c1ccc(N=NN(C)COC(C)=O)cc1, the T/C (endpoint: median survival time, dose: 15.0 mg/kg/injection, schedule: Q01DX005 (ip), vehicle: Klucel (hydroxypropylcellulose) (HPC)) was 109 % of control, the T/C (endpoint: median survival time, dose: 30.0 mg/kg/injection, schedule: Q01DX005 (ip), vehicle: Klucel (hydroxypropylcellulose) (HPC)) was 113 % of control and the T/C (endpoint: median survival time, dose: 60.0 mg/kg/injection, schedule: Q01DX005 (ip), vehicle: Klucel (hydroxypropylcellulose) (HPC)) was 114 % of control. The T/C (endpoint: median survival time, dose: 240.0 mg/kg/injection, schedule: Q01DX005 (ip), vehicle: Klucel (hydroxypropylcellulose) (HPC)) was 182 % of control.
In the case of NC1CC[N-]CC1.NC1CC[N-]CC1.NC1CC[N-]CC1.NC1CC[N-]CC1.[Cl][Rh][Cl], the T/C (endpoint: mean survival time, dose: 6.25 mg/kg/injection, schedule: Q04DX003 (ip), vehicle: saline with Tween-80) is reported as 98 % of control, the T/C [1] is reported as 101 % of control and the T/C (endpoint: mean survival time, dose: 25.0 mg/kg/injection, schedule: Q04DX003 (ip), vehicle: saline with Tween-80) is reported as 95 % of control.
In the case of Cc1ccc(S(=O)(=O)OCC(O)C(O)C(O)C(O)C=O)cc1 (stereo not drawn) (tested in a mixture with another compound), the T/C [6] is reported as 103 % of control, the T/C [7] is reported as 95 % of control and the T/C [8] is reported as 112 % of control.
With CC/C(=C\C=C\N(C)C)C(=O)OC the T/C [9] was 100 % of control, the T/C [6] was 100 % of control and the T/C [7] was 105 % of control.
For CNS(=O)(=O)c1ccc2c(c1)nc(SC)n2C, the T/C [6] was 101 % of control, the T/C [10] was 102 % of control and the T/C [7] was 101 % of control. For the same molecule, the T/C [11] was 94 % of control, the T/C [8] was 93 % of control and the T/C [12] was 95 % of control.
For [Cl][Sb]([c]1ccccc1)([c]1ccccc1)([c]1ccccc1)[c]1ccccc1, the T/C (endpoint: mean survival time, dose: 4.7 mg/kg/injection, schedule: Q04DX003 (ip), vehicle: saline) was 98 % of control and the T/C (endpoint: mean survival time, dose: 9.4 mg/kg/injection, schedule: Q04DX003 (ip), vehicle: saline) was 102 % of control.
In the case of C[S+](C)c1ccccc1, the T/C (endpoint: mean survival time, dose: 12.5 mg/kg/injection, schedule: Q04DX002 (ip), vehicle: saline) is reported as 100 % of control, the T/C (endpoint: mean survival time, dose: 25.0 mg/kg/injection, schedule: Q04DX002 (ip), vehicle: saline) is reported as 96 % of control and the T/C (endpoint: mean survival time, dose: 50.0 mg/kg/injection, schedule: Q04DX002 (ip), vehicle: saline) is reported as 100 % of control.
With Cn1cnc([N+](=O)[O-])c1SCC(=O)O the T/C (endpoint: mean survival time, dose: 12.5 mg/kg/injection, schedule: Q01DX009 (ip), vehicle: saline with Tween-80) was 95 % of control, the T/C (endpoint: mean survival time, dose: 12.5 mg/kg/injection, schedule: Q01DX009 (ip), vehicle: saline) was 109 % of control and the T/C (endpoint: mean survival time, dose: 25.0 mg/kg/injection, schedule: Q01DX009 (ip), vehicle: saline with Tween-80) was 98 % of control. The T/C [13] was 112 % of control, the T/C [9] was 95 % of control and the T/C [14] was 109 % of control. The T/C [6] was 98 % of control, the T/C [15] was 101 % of control and the T/C [7] was 104 % of control. The T/C [16] was 104 % of control, the T/C [8] was 98 % of control and the T/C (endpoint: mean survival time, dose: 400.0 mg/kg/injection, schedule: Q01DX009 (ip), vehicle: saline) was 109 % of control.
CCOc1ccc([NH-])c([NH-])c1.[Cl][Pt+2][Cl] was tested, and the T/C (endpoint: mean survival time, dose: 2.5 mg/kg/injection, schedule: Q01DX009 (ip), vehicle: distilled water + Tween-80) was 100 % of control, the T/C (endpoint: mean survival time, dose: 5.0 mg/kg/injection, schedule: Q01DX009 (ip), vehicle: distilled water + Tween-80) was 107 % of control and the T/C (endpoint: mean survival time, dose: 10.0 mg/kg/injection, schedule: Q01DX009 (ip), vehicle: distilled water + Tween-80) was 91 % of control.
With CC1(c2ccccc2)CCc2ccccc21 (stereo not drawn) the T/C [6] was 97 % of control, the T/C [7] was 95 % of control and the T/C [8] was 95 % of control.
For Cc1ccc(S(=O)(=O)/C=C/c2ccccc2)cc1, the T/C [2] was 103 % of control, the T/C [3] was 96 % of control and the T/C [4] was 108 % of control. For the same molecule, the T/C [5] was 93 % of control, the T/C (endpoint: mean survival time, dose: 400.0 mg/kg/injection, schedule: Q01DX001 (ip), vehicle: saline) was 100 % of control and the T/C (endpoint: mean survival time, dose: 400.0 mg/kg/injection, schedule: Q04DX003 (ip), vehicle: saline) was 87 % of control.
In the case of C=C1C(=O)O[C@H]2C[C@@H](C)[C@@H]3[C@@H](O)C[C@@H](O)[C@@]3(C)C[C@H]12, the T/C [6] is reported as 100 % of control, the T/C [10] is reported as 102 % of control and the T/C [7] is reported as 94 % of control. The T/C [11] was 96 % of control, the T/C [8] was 100 % of control and the T/C [12] was 103 % of control.
For c1ccc(C2OCC3(CO2)COC(c2ccccc2)OC3)cc1 (stereo not drawn), the T/C [6] was 88 % of control, the T/C [10] was 94 % of control and the T/C [7] was 91 % of control. The T/C [11] was 92 % of control and the T/C [12] was 92 % of control.
In the case of c1ccc(OCC2CO2)c(OCC2CO2)c1 (stereo not drawn), the T/C (endpoint: median survival time, dose: 25.0 mg/kg/injection, schedule: Q01DX009 (ip), vehicle: saline with Tween-80) is reported as 110 % of control and 111 % of control, the T/C (endpoint: median survival time, dose: 50.0 mg/kg/injection, schedule: Q01DX009 (ip), vehicle: saline with Tween-80) is reported as 113 % of control and 117 % of control and the T/C (endpoint: median survival time, dose: 200.0 mg/kg/injection, schedule: Q01DX009 (ip), vehicle: saline with Tween-80) is reported as 153 % of control and 168 % of control. The T/C (endpoint: median survival time, dose: 400.0 mg/kg/injection, schedule: Q01DX009 (ip), vehicle: saline with Tween-80) was 104 % of control.
With [Cl][Pt+2][Cl].[NH-]CC(O)C[NH-] the T/C (endpoint: median survival time, dose: 5.0 mg/kg/injection, schedule: Q04DX003 (ip), vehicle: saline) was 108 % of control, the T/C (endpoint: median survival time, dose: 10.0 mg/kg/injection, schedule: Q04DX003 (ip), vehicle: saline) was 103 % of control and the T/C (endpoint: median survival time, dose: 20.0 mg/kg/injection, schedule: Q04DX003 (ip), vehicle: saline) was 105 % of control. For the same molecule, the T/C (endpoint: median survival time, dose: 40.0 mg/kg/injection, schedule: Q04DX003 (ip), vehicle: saline) was 108 % of control.
For C[n+]1ccn(CC(=O)c2ccccc2)c1, the T/C [13] was 105 % of control, the T/C [14] was 103 % of control and the T/C [15] was 105 % of control. The T/C [3] was 102 % of control.
For NC(=O)SCC(N)C(=O)O (stereo not drawn), the T/C [14] was 101 % of control, the T/C [15] was 101 % of control and the T/C [16] was 109 % of control. The T/C (endpoint: mean survival time, dose: 300.0 mg/kg/injection, schedule: Q01DX009 (ip), vehicle: saline) was 107 % of control.
With CCCNC(=O)Oc1ccc(Br)cc1Br the T/C (endpoint: mean survival time, dose: 50.0 mg/kg/injection, schedule: Q01DX009 (ip), vehicle: Klucel (hydroxypropylcellulose) (HPC)) was 108 % of control, the T/C (endpoint: mean survival time, dose: 100.0 mg/kg/injection, schedule: Q01DX009 (ip), vehicle: Klucel (hydroxypropylcellulose) (HPC)) was 97 % of control and the T/C (endpoint: mean survival time, dose: 200.0 mg/kg/injection, schedule: Q01DX009 (ip), vehicle: Klucel (hydroxypropylcellulose) (HPC)) was 94 % of control.
OC(CC1=NNC(=S)NC1)(C(F)(F)F)C(F)(F)F was tested, and the T/C [9] was 94 % of control and the T/C [6] was 89 % of control.
O=C(O)CCc1nc2ccccc2c(=O)n1Cc1ccccc1 was tested, and the T/C (endpoint: mean survival time, dose: 100.0 mg/kg/injection, schedule: Q04DX003 (ip), vehicle: Klucel (hydroxypropylcellulose) (HPC)) was 106 % of control, the T/C (endpoint: mean survival time, dose: 200.0 mg/kg/injection, schedule: Q04DX003 (ip), vehicle: Klucel (hydroxypropylcellulose) (HPC)) was 98 % of control and the T/C (endpoint: mean survival time, dose: 400.0 mg/kg/injection, schedule: Q04DX003 (ip), vehicle: Klucel (hydroxypropylcellulose) (HPC)) was 95 % of control.
ClC(Cl)(Cl)C1OCCO1 was tested, and the T/C [6] was 95 % of control, the T/C [10] was 97 % of control and the T/C [7] was 104 % of control. For the same molecule, the T/C [11] was 102 % of control, the T/C [8] was 91 % of control and the T/C [12] was 97 % of control.
